Reference: patent US8648116B2, “Derivatives of N-(arylamino) sulfonamides including polymorphs as inhibitors of MEK as well as compositions, methods of use and methods for preparing the same” (Ardea Biosciences, Inc., priority 2005, dated 2014)
Like-named read-outs stand apart in the source and are kept apart here. Marks after values point to notes of the source that are not given here.

Experiments:
A431 epidermoid cells = assay: Anchorage-dependent growth inhibition (CellTiterGlo/ATP, 48 hr)
Procedure: (§1) Cells were maintained at 37° C., 5% CO2, and 100% humidity. Colo205 cells were maintained in RPMI supplemented with 10% fetal bovine serum, glutamine (2 mM), penicillin (100 U/ml), and streptomycin (100 μg/ml). For growth inhibition experiments, cells were plated in white 384-well microplates at 1000 cells/20 dwell. After 24 hr, 5 μl of a 5× drug stock solution was added. All drugs were initially prepared as 200× stocks in DMSO, such that final DMSO concentration was 0.5%. Cells were incubated for 48 hr at 37° C. and ATP levels were determined using CellTiterGlo (Promega, Madison, Wis.). […] Non-linear curve-fitting was performed using GraphPad Prism 4 (GraphPad Software, San Diego, Calif.).

[1] = test system: human renal proximal tubule epithelial cells (RPTEC); assay: Renal cell toxicity (AK release, ATP, 48 hr); assay type: cell-based
Procedure: Cryopreserved human renal proximal tubule epithelial cells (RPTEC) were obtained from Cambrex and were processed according to manufacturer's instructions. Cells were expanded for 4 days and then plated in 96-well plates at 50,000 cells/well for drug exposure.
After 48 hr, supernatant AK levels were determined using Toxilight, and cellular ATP levels were determined using CellTiterGlo. Full kill values were determined using 15 μM VRX-14686.

[2] = Pharmacokinetics in healthy volunteers following multiple doses; conditions: 20 mg
[3] = test system: human A375 melanoma xenografts
Colo205 cells = assay: Anchorage-independent growth inhibition (MTS, 7 days); assay type: cell-based, human
Procedure: Wells of an “ultra low binding” plate (Corning, Acton Mass.) were filled with 60 μl of a 0.15% agarose solution in complete RPMI. Then, 60 μl complete RPMI containing 9000 Colo205 cells in 0.15% agarose was added per well. After 24 hr, 60 μl of a 3× drug solution in agarose free complete RPMI was added. After 7 days, 36 μl 6×MTS reagent (CellTiter 96 Aqueous, Promega, Madison, Wis.) was added per well. After 2 hr at 37° C., absorbance at 490 nm was determined on the M5 plate reader (Molecular Devices, Sunnyvale, Calif.).
Viability was determined by MTS assay.

A375 cells = assay: Evaluation of cell cycle arrest (propidium iodide, flow cytometry); assay type: cell-based, human; conditions: 24 hr
Procedure: A375 cells were plated in 96-well microplates at 10,000 cells/200 μl/well. […] After another 24 hr, cells were trypsinized, fixed in 200 μl Prefer (Anatech, Battle Creek, Mich.), and stored at 4° C. overnight. Cells were then rinsed in PBS, permeabilized and stained in 0.1% Triton X-100, 200 μg/ml DNase-free RNase, and […] propidium iodide (Molecular Probes, Sunnyvale, Calif.), and analyzed on the Guava PCA-96 (Guava Technologies, Foster City, Calif.). Data were analyzed using ModFit LT (version 3.0, Verity, Topsham, Me.).

[4] = test system: Colo205 colon cancer cells; assay: Anchorage-dependent growth inhibition (CellTiterGlo/ATP, 48 hr)
Procedure: as §1

[5] = test system: BxPC3 pancreatic adenocarcinoma cells; assay: Anchorage-dependent growth inhibition (ATP content, 48 hr); assay type: cell-based, human; conditions: BxPC3, 48 hr
[6] = test system: MDA-MB231 breast adenocarcinoma cells; assay: as above; assay type: cell-based, human
[7] = test system: COLO 205 human colon carcinoma xenografts; assay: Activity against subcutaneous COLO 205 xenografts (Example 118)
Procedure: Dosing solutions of Compound A were prepared fresh daily by dissolving the required amount of compound in 100% Cremophor EL, and then diluting ten-fold with normal saline. Final dosing solution concentrations were 2.5, 5, 10, or 20 mg/mL, in order to provide respective doses of 25, 50, 100 or 200 mg/kg in a dosing volume of 10 mL/kg. Paclitaxel (Natural Pharmaceuticals, Inc.) was prepared fresh on each day of dosing in a vehicle consisting of 5% ethanol and 5% Cremophor EL in 90% D5W (5% EC vehicle).
Group 1 received the formulation vehicle (10% Cremophor EL in saline), and served as the tumor growth control group. Group 2 received the reference drug paclitaxel administered on its optimal schedule in nude mice (30 mg/kg i.v. qod×5). […] All doses were scaled to the weight of the animal (0.2 mL per 20 grams body weight).
Tumors were measured twice each week using calipers. […] Therefore endpoint tumor size of 800 mm^3 was used for analysis of tumor growth delay (TGD).
[formula] where b is the intercept and m is the slope of the line obtained by linear regression of a log-transformed tumor growth data set.

Colo205 tumor cells = assay: ED50 in Colo205 xenografts (Example 94D); assay type: in vivo, nu/nu mice
From the text: Male nu/nu mice were implanted with Colo205 tumor cells. After 10 days animals were randomized by tumor size (range 126-256 mm^3) and treated with paclitaxel (IV, QODx5), vehicle or Compound A (PO, QDx14).

[8] = Group 3: Compound A 50 mg/kg po qd × 14
[9] = Group 3: Compound A 50 mg/kg po qd × 14, n=9
[10] = Group 4: Compound A 25 mg/kg po bid × 14
[11] = Group 4: Compound A 25 mg/kg po bid × 14, n=9
[12] = Group 5: Compound A 25 mg/kg po qd × 14
[13] = Group 5: Compound A 25 mg/kg po qd × 14, n=9
[14] = Group 6: Compound A 12.5 mg/kg po bid × 14
[15] = Group 6: Compound A 12.5 mg/kg po bid × 14, n=9
[16] = Group 3, 50 mg/kg po qd × 14 per the 39th table (25 mg/kg p.o. qd×14), n=9
[17] = Group 4, 25 mg/kg po bid × 14 first day 1 dose per the 39th table (50 mg/kg p.o. qd×14), n=9
[18] = Group 5, 25 mg/kg po qd × 14 per the 39th table (100 mg/kg p.o. qd×14), n=9
[19] = Group 6, 12.5 mg/kg po bid × 14 first day 1 dose per the 39th table (200 mg/kg p.o., discontinued after six days), n=9

## COc1cc(F)c(F)c(Nc2ccc(I)cc2F)c1NS(=O)(=O)C1(C[C@H](O)CO)CC1
A431 epidermoid cells; read-out: Mean GI50, A431, 48 hr, ATP content, mean of at least three experiments
  GI50: 86 nM
[1]; RPTEC cells, 48 hr, cell lysis at 30 W (so in the source)
  ATP depletion and cell lysis: dose dependent ATP depletion and evident cell lysis
[1]; human renal proximal tubule epithelial cells
  cytotoxicity: little cytotoxicity
[2]
  Rac AUCτ (accumulation index): 1.24
[3]; Group 3, 50 mg/kg po qd×14
  Median TTE: 27.5 days
  PR: A single animal
  TGD: 21%
[3]; Group 4, 25 mg/kg po bid×14
  CR: 5/9
  Median TTE: 59.9 days
  PR: 4/9
  TFS: 4/9
[3]; Group 4, 25 mg/kg po bid×14, maximum possible
  TGD: 163%
[3]; Group 5, 25 mg/kg po qd×14
  Median TTE: 25.6 days
  tumor regressions: no tumor regressions
[3]; Group 5, 25 mg/kg po qd×14, non-significant
  TGD: 12%
[3]; Group 6, 12.5 mg/kg po bid×14
  Median TTE: 27.5 days
  PR: a single PR response
  TGD: 21%
Colo205 cells; Colo205, anchorage independent, read-out: Mean GI50
  GI50: 40 nM
Colo205 cells; human colorectal carcinoma Colo205 cells, read-out: GI50, anchorage independent growth (FIG. 12A)
  GI50: 11 nM
A375 cells
  effect on cell cycle progression: arrest in the G1 phase of the cell cycle
[4]; Colo205, separate study, 48 hr, ATP content
  GI50: 27 nM
[4]; read-out: Mean GI50, Colo205, 48 hr, ATP content, mean of at least three experiments
  GI50: 89 nM
[5]
  GI50: > 1000 nM
[6]; MDA (MDA-MB231), 48 hr, ATP content
  GI50: > 1000 nM
[6]; MDA-MB231 cells
  growth arrest in 2-dimensional anchorage dependent assays: do not show

## COc1cc(F)c(F)c(Nc2ccc(I)cc2F)c1NS(=O)(=O)C1(C[C@H](O)CO)CC1 [Compound A]
A431 epidermoid cells; Homo sapiens, A-431, 48 h, read-out: Anchorage-Dependent GI50 (nM ± sd)
  GI50: > 10000 nM
[1]; Compound A 1.1 (μM), 48 hr
  AK release (% Cell Survival) RPTEC Human: 96%
  ATP (% Cell Survival) RPTEC Human: 94%
[1]; Compound A 3.3 (μM), 48 hr
  AK release (% Cell Survival) RPTEC Human: 95%
  ATP (% Cell Survival) RPTEC Human: 91%
[1]; Compound A 10.0 (μM), 48 hr
  AK release (% Cell Survival) RPTEC Human: 99%
  ATP (% Cell Survival) RPTEC Human: 85%
[1]; Compound A 30.0 (μM), 48 hr
  AK release (% Cell Survival) RPTEC Human: 41%
  ATP (% Cell Survival) RPTEC Human: 34%
[3]; [8]
  % TGD: 21%
  Median TTE: 27.5 days
  T − C: 4.7 days
[3]; [9]
  Regressions CR: 0
  Regressions PR: 1
  Regressions TFS: 0
[3]; [10]
  % TGD: 163%
  MTV (n) Day 60: 0 (4)
  Median TTE: 59.9 days
  T − C: 37.1 days
[3]; [11]
  Regressions CR: 5
  Regressions PR: 4
  Regressions TFS: 4
[3]; [12]
  % TGD: 12%
  Median TTE: 25.6 days
  T − C: 2.8 days
[3]; [13]
  Regressions CR: 0
  Regressions PR: 0
  Regressions TFS: 0
[3]; [14]
  % TGD: 21%
  Median TTE: 27.5 days
  T − C: 4.7 days
[3]; [15]
  Regressions CR: 0
  Regressions PR: 1
  Regressions TFS: 0
[3]; mouse, in vivo, po, 25 mg/kg
  Mean BW Nadir: −0.6% Day 15
[7]; 25 mg/kg p.o. qd×14
  TGD: 3%
[7]; 50 mg/kg p.o. qd×14
  TGD: 46%
[7]; 100 mg/kg p.o. qd×14
  TGD: maximum TGD possible
[7]; 200 mg/kg p.o. once daily
  relation to the MTD: above the MTD
[7]; 200 mg/kg p.o., dosing stopped after Day 6
  TR deaths: 3/9
[7]; Group 3, 25 mg/kg p.o. qd×14
  Median TTE: 47.9 days
[7]; [16]
  % TGD: 17%
  MTV (n) Day 74: 0 (3)
  Median TTE: 47.9 days
  No of CR: 0
  No of NTR (non-treatment-related deaths): 2
  No of PR: 1
  No of TFS: 0
  No of TR (treatment-related deaths): 2
  SS (statistical significance, logrank vs Group 1): ns
  T − C: 6.9 days
[7]; [17]
  % TGD: 44%
  MTV (n) Day 74: 195 (1)
  Median TTE: 59.1 days
  No of CR: 0
  No of NTR (non-treatment-related deaths): 0
  No of PR: 4
  No of TFS: 0
  No of TR (treatment-related deaths): 0
  SS (statistical significance, logrank vs Group 1): ns
  T − C: 18.1 days
[7]; Group 4, 50 mg/kg p.o. qd×14
  Median TTE: 59.1 days
[7]; [18]
  % TGD: 80%
  MTV (n) Day 74: 320 (5)
  Median TTE: 74.0 days
  No of CR: 0
  No of NTR (non-treatment-related deaths): 0
  No of PR: 4
  No of TFS: 0
  No of TR (treatment-related deaths): 1
  SS (statistical significance, logrank vs Group 1): ns
  T − C: 33.0 days
[7]; Group 5, 100 mg/kg p.o. qd×14
  Median TTE: 74.0 days
[7]; [19]
  % TGD: 41%
  MTV (n) Day 74: 0 (3)
  Median TTE: 57.8 days
  No of CR: 3
  No of NTR (non-treatment-related deaths): 2
  No of PR: 1
  No of TFS: 0
  No of TR (treatment-related deaths): 2
  T − C: 16.8 days
Colo205 cells; Homo sapiens, COLO 205, 168 h, Colo205 Colon, BRAF V600E, 0.15% agarose, read-out: Anchorage-Independent GI50 (nM ± sd)
  GI50: 33 ± 16 nM
Colo205 tumor cells; Compound A 2.5 mg/kg PO QDx14
  % TGI: 47* %
  Day 15 Tumor Volume: 1187 ± 127 mm^3
Colo205 tumor cells; Compound A 5 mg/kg PO QDx14
  % TGI: 48* %
  Day 15 Tumor Volume: 1175 ± 104 mm^3
Colo205 tumor cells; Compound A 10 mg/kg PO QDx14
  % TGI: 55* %
  Day 15 Tumor Volume: 1045 ± 160 mm^3
Colo205 tumor cells; Compound A 25 mg/kg PO QDx14
  % TGI: 70* %
  Day 15 Tumor Volume: 762 ± 81 mm^3
[4]; Homo sapiens, COLO 205, 48 h, read-out: Anchorage-Dependent GI50 (nM ± sd)
  GI50: 74 ± 45 nM
